Data taken from publication PMC3119665, “A New Drug Design Targeting the Adenosinergic System for Huntington's Disease” (PLoS ONE, 2011).

Assays:
[1] = target: T1, Interleukin IL-2 (Mus musculus, UniProt P01590+P16297+P34902); test: Radioligand binding panel (Table S1); conditions: 10 μM T1-11, n 2
T1 construct: purchased MDS Pharma Services Taiwan

[2] = test system: Imidazoline I2, Peripheral; test: Radioligand binding panel (Table S1); parameters: species or system rat; conditions: 10 μM T1-11, n 2
[3] = target: T2, Bombesin BB1 (Homo sapiens, UniProt P28336); test: Radioligand binding panel (Table S1); conditions: 10 μM T1-11, n 2
T2 construct: purchased MDS Pharma Services Taiwan

[4] = target: T3, Anaphylatoxin C5a (Homo sapiens, UniProt P21730); test: Radioligand binding panel (Table S1); conditions: 10 μM T1-11, n 2
T3 construct: purchased MDS Pharma Services Taiwan

[5] = target: T4, Transporter, Dopamine (Homo sapiens, UniProt Q01959); test: Radioligand binding panel (Table S1); conditions: 10 μM T1-11, n 2
T4 construct: purchased MDS Pharma Services Taiwan

[6] = target: T5, Vasopressin V1B (Homo sapiens, UniProt P47901); test: Radioligand binding panel (Table S1); conditions: 10 μM T1-11, n 2
T5 construct: purchased MDS Pharma Services Taiwan

[7] = test system: Atrial Natriuretic Factor (ANF); test: Radioligand binding panel (Table S1); parameters: species or system guinea pig; conditions: 10 μM T1-11, n 2
[8] = target: T6, Chemokine CCR4 (Homo sapiens, UniProt P51679); test: Radioligand binding panel (Table S1); conditions: 10 μM T1-11, n 2
T6 construct: purchased MDS Pharma Services Taiwan

[9] = target: T7, Phosphodiesterase PDE10A1 (Homo sapiens, UniProt Q9Y233); test: Radioligand binding panel (Table S1); conditions: 10 μM T1-11, n 2
T7 construct: purchased MDS Pharma Services Taiwan

[10] = target: T8, Transporter, GABA (Rattus norvegicus, UniProt P23978); test: Radioligand binding panel (Table S1); conditions: 10 μM T1-11, n 2
T8 construct: purchased MDS Pharma Services Taiwan

[11] = target: T9, Melanocortin MC5 (Homo sapiens, UniProt P33032); test: Radioligand binding panel (Table S1); conditions: 10 μM T1-11, n 2
T9 construct: purchased MDS Pharma Services Taiwan

[12] = target: T10, Serotonin (5-Hydroxytryptamine) 5-HT6 (Homo sapiens, UniProt P50406); test: Radioligand binding panel (Table S1); conditions: 10 μM T1-11, n 2
T10 construct: purchased MDS Pharma Services Taiwan

[13] = target: T11, Chemokine CCR1 (Homo sapiens, UniProt P32246); test: Radioligand binding panel (Table S1); conditions: 10 μM T1-11, n 2
T11 construct: purchased MDS Pharma Services Taiwan

[14] = target: T12, Histamine H4 (Homo sapiens, UniProt Q9H3N8); test: Radioligand binding panel (Table S1); conditions: 10 μM T1-11, n 2
T12 construct: purchased MDS Pharma Services Taiwan

[15] = target: T13, A2A adenosine receptor (Homo sapiens, UniProt P29274); test: Radioligand binding assay
T13 construct: host or cells: HEK293

[16] = target: T14, Leukotriene, Cysteinyl CysLT1 (Homo sapiens, UniProt Q9Y271); test: Radioligand binding panel (Table S1); conditions: 10 μM T1-11, n 2
T14 construct: purchased MDS Pharma Services Taiwan

[17] = test system: Sodium Channel, Site 2; test: Radioligand binding panel (Table S1); parameters: species or system rat; conditions: 10 μM T1-11, n 2
[18] = target: T15, Vasopressin V2 (Homo sapiens, UniProt P30518); test: Radioligand binding panel (Table S1); conditions: 10 μM T1-11, n 2
T15 construct: purchased MDS Pharma Services Taiwan

[19] = target: Glutamate, NMDA, Glycine (Rattus norvegicus, UniProt P35439); test: Radioligand binding panel (Table S1); conditions: 10 μM T1-11, n 2
[20] = target: T16, Orphanin ORL1 (Homo sapiens, UniProt P41146); test: Radioligand binding panel (Table S1); conditions: 10 μM T1-11, n 2
T16 construct: purchased MDS Pharma Services Taiwan

[21] = test system: Transporter, Glycin.e; test: Radioligand binding panel (Table S1); parameters: species or system rat; conditions: 10 μM T1-11, n 2
[22] = target: T17, Melanocortin MC4 (Homo sapiens, UniProt P32245); test: Radioligand binding panel (Table S1); conditions: 10 μM T1-11, n 2
T17 construct: purchased MDS Pharma Services Taiwan

[23] = target: T18, Orexin OX 1 (Homo sapiens, UniProt O43613); test: Radioligand binding panel (Table S1); conditions: 10 μM T1-11, n 2
T18 construct: purchased MDS Pharma Services Taiwan

[24] = test system: Chemokine CXCR1/2 (IL-8, Non-Selective); test: Radioligand binding panel (Table S1); parameters: species or system human; conditions: 10 μM T1-11, n 2
[25] = test system: GABAA, Agonist Site; test: Radioligand binding panel (Table S1); parameters: species or system rat; conditions: 10 μM T1-11, n 2
[26] = target: T19, Lipoxygenase 5-LO (Homo sapiens, UniProt P09917); test: Radioligand binding panel (Table S1); conditions: 10 μM T1-11, n 2
T19 construct: purchased MDS Pharma Services Taiwan

[27] = target: T20, Phosphodiesterase PDE5 (Homo sapiens, UniProt O76074); test: Radioligand binding panel (Table S1); conditions: 10 μM T1-11, n 2
T20 construct: purchased MDS Pharma Services Taiwan

[28] = target: T21, Corticotropin Releasing Factor, CRF1 (Homo sapiens, UniProt P34998); test: Radioligand binding panel (Table S1); conditions: 10 μM T1-11, n 2
T21 construct: purchased MDS Pharma Services Taiwan

[29] = target: T22, Dopamine D4.7 (Homo sapiens, UniProt P21917, INS283GLPPDPCGPDCAPPAPGLPQDPCGPDCAPPAPGLPRGPCGPDCAPPAP/S284G); test: Radioligand binding panel (Table S1); conditions: 10 μM T1-11, n 2
T22 construct: purchased MDS Pharma Services Taiwan

[30] = test system: Neurotensin, Non-Selective; test: Radioligand binding panel (Table S1); parameters: species or system mouse; conditions: 10 μM T1-11, n 2
[31] = target: T23, Histamine H2 (Homo sapiens, UniProt P25021); test: Radioligand binding panel (Table S1); conditions: 10 μM T1-11, n 2
T23 construct: purchased MDS Pharma Services Taiwan

[32] = target: T24, Phosphodiesterase PDE3 (Homo sapiens, UniProt Q14432); test: Radioligand binding panel (Table S1); conditions: 10 μM T1-11, n 2
T24 construct: purchased MDS Pharma Services Taiwan

[33] = target: T25, Leukotriene, Cysteinyl CysLT2 (Homo sapiens, UniProt Q9NS75); test: Radioligand binding panel (Table S1); conditions: 10 μM T1-11, n 2
T25 construct: purchased MDS Pharma Services Taiwan

[34] = test system: Glutamate, NMDA, Agonism; test: Radioligand binding panel (Table S1); parameters: species or system rat; conditions: 10 μM T1-11, n 2
[35] = test system: PC12 cells; test: Annexin V-FITC staining, serum-deprived PC12 cells; type: cell-based, rat; conditions: T1-11 10 µM, 24 h
Procedure: An annexin V (FITC-conjugated) apoptosis kit (K101-400; BioVision, Mountain View, CA, USA) was used to analyze apoptotic cells. The experimental protocol followed the manufacturer's instructions and a previous article. In brief, after treatment with serum, serum-free medium, or serum-free medium plus T1-11 of the indicated concentration for 24 h, cells growing on 12-well plates at (3∼4)×10^5 cells/well were loaded with 0.5 ml binding buffer and 5 µl annexin V-FITC. After incubation for 5 min in the dark, cells were washed once with 1 ml of culture medium (without phenol red) for fluorescent imaging analyses (Axiovert-200M, Carl Zeiss, Gôttingen, Germany) or a flow cytometric analysis (Beckton Dickinson, Franklin Lakes, NJ, USA). Median values of the FITC fluorescent intensities were determined using an FL-1 channel (488/530Ex/Em nm). Five thousand live cells were analyzed per sample.

[36] = HEK293 membranes, 3H-CGS21680 50 nM

T13 sequence (P29274 whole entry): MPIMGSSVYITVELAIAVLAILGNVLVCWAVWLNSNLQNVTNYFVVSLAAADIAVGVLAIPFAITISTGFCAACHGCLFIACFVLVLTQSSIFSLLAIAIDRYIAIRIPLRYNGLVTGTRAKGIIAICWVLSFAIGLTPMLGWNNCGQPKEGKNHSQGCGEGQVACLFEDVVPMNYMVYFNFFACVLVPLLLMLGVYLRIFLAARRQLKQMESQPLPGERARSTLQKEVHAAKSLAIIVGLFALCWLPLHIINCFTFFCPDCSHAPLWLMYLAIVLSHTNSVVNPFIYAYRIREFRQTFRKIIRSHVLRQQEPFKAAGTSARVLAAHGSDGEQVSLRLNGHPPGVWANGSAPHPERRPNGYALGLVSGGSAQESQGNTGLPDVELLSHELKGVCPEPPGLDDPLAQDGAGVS
T16 sequence (P41146 whole entry): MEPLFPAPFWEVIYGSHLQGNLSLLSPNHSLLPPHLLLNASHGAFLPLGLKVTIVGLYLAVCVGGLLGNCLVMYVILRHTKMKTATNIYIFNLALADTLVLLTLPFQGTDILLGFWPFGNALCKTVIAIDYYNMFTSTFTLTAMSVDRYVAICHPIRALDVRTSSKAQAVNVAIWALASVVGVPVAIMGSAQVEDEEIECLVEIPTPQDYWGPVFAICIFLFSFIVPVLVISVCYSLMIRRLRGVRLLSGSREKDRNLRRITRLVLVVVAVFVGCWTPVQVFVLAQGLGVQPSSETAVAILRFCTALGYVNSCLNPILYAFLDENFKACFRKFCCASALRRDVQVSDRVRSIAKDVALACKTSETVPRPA
T21 sequence (P34998 24-415): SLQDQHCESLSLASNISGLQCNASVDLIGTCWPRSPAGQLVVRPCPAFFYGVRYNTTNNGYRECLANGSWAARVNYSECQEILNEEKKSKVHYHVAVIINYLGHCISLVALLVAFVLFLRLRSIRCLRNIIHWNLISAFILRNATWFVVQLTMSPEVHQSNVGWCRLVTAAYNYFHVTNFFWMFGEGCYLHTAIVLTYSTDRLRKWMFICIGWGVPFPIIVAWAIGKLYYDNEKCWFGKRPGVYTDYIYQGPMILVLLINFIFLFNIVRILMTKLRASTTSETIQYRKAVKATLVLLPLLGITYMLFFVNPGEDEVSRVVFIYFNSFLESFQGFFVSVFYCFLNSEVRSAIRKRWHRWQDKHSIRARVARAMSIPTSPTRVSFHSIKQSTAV
T25 sequence (Q9NS75 whole entry): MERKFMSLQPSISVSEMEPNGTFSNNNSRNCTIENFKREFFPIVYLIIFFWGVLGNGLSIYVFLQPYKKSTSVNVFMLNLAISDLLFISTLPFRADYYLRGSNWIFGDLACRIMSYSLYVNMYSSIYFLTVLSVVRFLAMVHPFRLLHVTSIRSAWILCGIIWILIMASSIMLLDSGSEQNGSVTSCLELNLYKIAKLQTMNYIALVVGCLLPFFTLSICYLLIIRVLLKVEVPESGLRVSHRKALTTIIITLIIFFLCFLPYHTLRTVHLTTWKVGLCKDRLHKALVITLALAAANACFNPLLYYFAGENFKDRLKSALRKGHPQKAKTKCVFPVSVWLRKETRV
T23 sequence (P25021 whole entry): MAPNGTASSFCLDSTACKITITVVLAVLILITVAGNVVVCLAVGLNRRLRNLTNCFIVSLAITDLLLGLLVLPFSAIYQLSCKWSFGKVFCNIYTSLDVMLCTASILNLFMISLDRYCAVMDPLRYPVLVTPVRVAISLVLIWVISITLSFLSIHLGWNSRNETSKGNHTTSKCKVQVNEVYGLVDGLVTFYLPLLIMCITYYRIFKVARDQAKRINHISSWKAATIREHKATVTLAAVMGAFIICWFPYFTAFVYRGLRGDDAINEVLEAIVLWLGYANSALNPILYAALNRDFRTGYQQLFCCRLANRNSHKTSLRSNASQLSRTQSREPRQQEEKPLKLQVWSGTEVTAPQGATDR
T5 sequence (P47901 whole entry): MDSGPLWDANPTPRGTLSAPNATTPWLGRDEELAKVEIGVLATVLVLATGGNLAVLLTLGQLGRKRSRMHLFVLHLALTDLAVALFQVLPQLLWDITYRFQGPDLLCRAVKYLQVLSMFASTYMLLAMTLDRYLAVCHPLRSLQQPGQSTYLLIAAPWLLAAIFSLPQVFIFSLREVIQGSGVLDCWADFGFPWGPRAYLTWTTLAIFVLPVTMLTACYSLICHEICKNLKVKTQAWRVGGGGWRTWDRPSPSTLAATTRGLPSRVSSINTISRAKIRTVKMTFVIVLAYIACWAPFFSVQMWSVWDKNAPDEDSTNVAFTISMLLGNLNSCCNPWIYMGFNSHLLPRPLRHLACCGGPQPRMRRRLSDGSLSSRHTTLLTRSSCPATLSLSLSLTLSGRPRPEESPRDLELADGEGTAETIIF
T24 sequence (Q14432 whole entry): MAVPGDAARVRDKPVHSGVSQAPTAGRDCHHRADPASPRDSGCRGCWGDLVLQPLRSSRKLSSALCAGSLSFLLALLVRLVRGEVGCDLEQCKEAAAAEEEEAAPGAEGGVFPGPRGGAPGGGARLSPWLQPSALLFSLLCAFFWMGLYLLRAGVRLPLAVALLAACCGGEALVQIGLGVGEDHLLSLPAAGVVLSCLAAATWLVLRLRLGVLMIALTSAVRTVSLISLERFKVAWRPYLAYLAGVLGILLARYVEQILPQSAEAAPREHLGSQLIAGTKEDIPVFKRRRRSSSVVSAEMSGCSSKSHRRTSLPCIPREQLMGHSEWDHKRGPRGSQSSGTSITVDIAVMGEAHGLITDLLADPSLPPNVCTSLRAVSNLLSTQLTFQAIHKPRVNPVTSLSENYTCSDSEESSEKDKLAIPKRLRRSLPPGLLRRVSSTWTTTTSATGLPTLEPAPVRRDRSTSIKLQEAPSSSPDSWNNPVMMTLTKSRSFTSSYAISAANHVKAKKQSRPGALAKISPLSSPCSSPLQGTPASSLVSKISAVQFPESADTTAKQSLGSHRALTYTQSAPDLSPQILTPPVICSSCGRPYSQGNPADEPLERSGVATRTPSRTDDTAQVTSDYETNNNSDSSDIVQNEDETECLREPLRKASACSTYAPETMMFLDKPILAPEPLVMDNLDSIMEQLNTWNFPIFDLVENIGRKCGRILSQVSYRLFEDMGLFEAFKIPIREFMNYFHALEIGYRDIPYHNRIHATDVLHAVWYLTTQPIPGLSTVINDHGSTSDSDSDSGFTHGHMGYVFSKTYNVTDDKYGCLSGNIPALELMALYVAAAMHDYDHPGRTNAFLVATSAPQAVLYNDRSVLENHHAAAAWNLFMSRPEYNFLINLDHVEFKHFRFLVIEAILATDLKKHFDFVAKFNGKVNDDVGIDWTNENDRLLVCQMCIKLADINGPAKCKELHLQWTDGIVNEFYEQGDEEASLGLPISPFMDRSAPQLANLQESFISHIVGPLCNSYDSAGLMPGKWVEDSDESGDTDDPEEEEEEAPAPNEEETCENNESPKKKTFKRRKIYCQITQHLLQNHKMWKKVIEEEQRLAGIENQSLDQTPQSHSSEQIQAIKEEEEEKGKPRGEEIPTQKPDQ
T11 sequence (P32246 whole entry): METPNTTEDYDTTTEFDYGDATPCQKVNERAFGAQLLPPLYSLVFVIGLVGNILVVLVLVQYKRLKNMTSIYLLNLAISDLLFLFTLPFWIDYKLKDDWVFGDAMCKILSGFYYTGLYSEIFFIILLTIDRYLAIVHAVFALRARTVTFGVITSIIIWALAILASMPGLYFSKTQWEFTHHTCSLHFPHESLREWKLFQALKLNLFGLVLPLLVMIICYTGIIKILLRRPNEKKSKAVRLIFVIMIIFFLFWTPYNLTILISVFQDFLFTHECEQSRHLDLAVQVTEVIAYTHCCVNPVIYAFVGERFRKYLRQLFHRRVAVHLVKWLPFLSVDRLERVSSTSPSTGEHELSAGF
T14 sequence (Q9Y271 whole entry): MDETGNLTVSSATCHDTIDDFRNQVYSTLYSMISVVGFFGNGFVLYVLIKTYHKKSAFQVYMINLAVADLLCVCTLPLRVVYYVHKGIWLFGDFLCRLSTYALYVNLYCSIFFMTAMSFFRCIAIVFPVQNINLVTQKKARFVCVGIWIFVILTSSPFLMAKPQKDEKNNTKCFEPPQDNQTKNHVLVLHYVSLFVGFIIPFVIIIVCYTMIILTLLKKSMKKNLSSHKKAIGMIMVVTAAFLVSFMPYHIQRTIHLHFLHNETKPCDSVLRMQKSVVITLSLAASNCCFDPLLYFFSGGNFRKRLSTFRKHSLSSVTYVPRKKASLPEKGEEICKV

Which inhibition at 10 µM [1] does the source give for `OC[C@H]1O[C@@H](n2cnc3c(NCc4ccc(O)cc4)ncnc32)[C@H](O)[C@@H]1O` [T1-11, N ^6-(4-hydroxybenzyl)adenine riboside] here?
Its inhibition at 10 µM is 0%.

What about the “% Inhibition” value [2] of the same compound?
The value was 10%.

What about the inhibition at 10 µM [3] of the same compound?
Its inhibition at 10 µM is -5%.

And the inhibition at 10 µM [4]?
The inhibition at 10 µM was 2%.

And the inhibition at 10 µM [5]?
The inhibition at 10 µM was -6%.

And the inhibition at 10 µM [6]?
Its inhibition at 10 µM is -18%.

What about the “% Inhibition” value [7] of the same compound?
Its value is 5%.

And the inhibition at 10 µM [8]?
Its inhibition at 10 µM is 5%.

And the inhibition at 10 µM [9]?
Its inhibition at 10 µM is 1%.

What about the inhibition at 10 µM [10] of the same compound?
Its inhibition at 10 µM is 8%.

What about the inhibition at 10 µM [11] of the same compound?
Its inhibition at 10 µM is 1%.

And the inhibition at 10 µM [12]?
Its inhibition at 10 µM is 12%.

And the inhibition at 10 µM [13]?
The inhibition at 10 µM was -3%.

And the inhibition at 10 µM [14]?
The inhibition at 10 µM was 8%.

And the inhibition at 10 µM ([15]; 10 μM T1-11, n 2)?
The inhibition at 10 µM was 58%.

What about the IC50 [15, 36] of the same compound?
Its IC50 is 4.66 µM.

What about the Ki [15, 36] of the same compound?
The Ki was 2.62 µM.

What about the inhibition at 10 µM [16] of the same compound?
Its inhibition at 10 µM is -4%.

What about the “% Inhibition” value [17] of the same compound?
The value was 3%.

And the inhibition at 10 µM [18]?
Its inhibition at 10 µM is -5%.

And the inhibition at 10 µM [19]?
The inhibition at 10 µM was 7%.

And the inhibition at 10 µM [20]?
Its inhibition at 10 µM is 10%.

What about the “% Inhibition” value [21] of the same compound?
The value was 1%.

And the inhibition at 10 µM [22]?
The inhibition at 10 µM was 5%.

And the inhibition at 10 µM [23]?
The inhibition at 10 µM was -13%.

And the “% Inhibition” value [24]?
Its value is 10%.

What about the “% Inhibition” value [25] of the same compound?
The value was 4%.

And the inhibition at 10 µM [26]?
The inhibition at 10 µM was 25%.

What about the inhibition at 10 µM [27] of the same compound?
Its inhibition at 10 µM is 4%.

What about the inhibition at 10 µM [28] of the same compound?
The inhibition at 10 µM was 1%.

What about the inhibition at 10 µM [29] of the same compound?
Its inhibition at 10 µM is 3%.

And the “% Inhibition” value [30]?
Its value is 15%.

And the inhibition at 10 µM [31]?
The inhibition at 10 µM was -10%.

What about the inhibition at 10 µM [32] of the same compound?
Its inhibition at 10 µM is 0%.

And the inhibition at 10 µM [33]?
The inhibition at 10 µM was 10%.

What about the “% Inhibition” value [34] of the same compound?
The value was 10%.

And the “Apoptosis (annexin V-FITC)” value [35]?
The value was “rescued serum-deprived PC12 cells from apoptosis”.
